# Data: publication PMC8800111 (The Journal of Biological Chemistry, 2021)
# Columns and labels:
# Assay type in all cases: cell-based
# [1] = target: proteins of U3A human fibrosarcoma cells (4462 proteins detected) (Homo sapiens, UniProt O14972); conditions: protein DSCR3; U3A, 10 μM, 2 h
# [2] = target: proteins of U3A human fibrosarcoma cells (4462 proteins detected) (Homo sapiens, UniProt O60341); conditions: protein KDM1A; soluble abundance after heat, U3A cells
# [3] = target: proteins of U3A human fibrosarcoma cells (4462 proteins detected) (Homo sapiens, UniProt O75459); conditions: protein PAGE1, U3A cells
# [4] = target: proteins of U3A human fibrosarcoma cells (4462 proteins detected) (Homo sapiens, UniProt P02786); conditions: protein TFRC; U3A cells
# [5] = target: proteins of U3A human fibrosarcoma cells (4462 proteins detected) (Homo sapiens, UniProt P06733); conditions: protein ENO1; U3A, 10 μM, 2 h
# [6] = target: proteins of U3A human fibrosarcoma cells (4462 proteins detected) (Homo sapiens, UniProt P09874); conditions: protein PARP1; U3A cells
# [7] = target: proteins of U3A human fibrosarcoma cells (4462 proteins detected) (Homo sapiens, UniProt P14866); conditions: protein HNRNPL; soluble abundance after heat, U3A cells
# [8] = target: proteins of U3A human fibrosarcoma cells (4462 proteins detected) (Homo sapiens, UniProt P49368); conditions: protein CCT3; U3A cells
# [9] = target: proteins of U3A human fibrosarcoma cells (4462 proteins detected) (Homo sapiens, UniProt P51648); conditions: protein ALDH3A2; U3A cells
# [10] = target: proteins of U3A human fibrosarcoma cells (4462 proteins detected) (Homo sapiens, UniProt Q13131); conditions: protein PRKAA1; U3A cells
# [11] = target: proteins of U3A human fibrosarcoma cells (4462 proteins detected) (Homo sapiens, UniProt Q13541); conditions: protein EIF4EBP1, U3A cells
# [12] = target: proteins of U3A human fibrosarcoma cells (4462 proteins detected) (Homo sapiens, UniProt Q14847); conditions: protein LASP1, U3A cells
# [13] = target: proteins of U3A human fibrosarcoma cells (4462 proteins detected) (Homo sapiens, UniProt Q15397); conditions: protein KIAA0020; U3A cells
# [14] = target: proteins of U3A human fibrosarcoma cells (4462 proteins detected) (Homo sapiens, UniProt Q15428); conditions: protein SF3A2; U3A cells
# [15] = target: proteins of U3A human fibrosarcoma cells (4462 proteins detected) (Homo sapiens, UniProt Q16626); conditions: protein MEA1, U3A cells
# [16] = target: proteins of U3A human fibrosarcoma cells (4462 proteins detected) (Homo sapiens, UniProt Q16891); conditions: protein IMMT; U3A cells
# [17] = target: proteins of U3A human fibrosarcoma cells (4462 proteins detected) (Homo sapiens, UniProt Q7Z3E5); conditions: protein ARMC9; U3A, 10 μM, 2 h
# [18] = target: proteins of U3A human fibrosarcoma cells (4462 proteins detected) (Homo sapiens, UniProt Q8TDD1); conditions: protein DDX54; U3A, 10 μM, 2 h
# [19] = target: proteins of U3A human fibrosarcoma cells (4462 proteins detected) (Homo sapiens, UniProt Q8TDP1); conditions: protein RNASEH2C, U3A cells
# [20] = target: proteins of U3A human fibrosarcoma cells (4462 proteins detected) (Homo sapiens, UniProt Q92888); conditions: protein ARHGEF1; U3A cells
# [21] = target: proteins of U3A human fibrosarcoma cells (4462 proteins detected) (Homo sapiens, UniProt Q96FZ2); conditions: protein HMCES, U3A cells
# [22] = target: proteins of U3A human fibrosarcoma cells (4462 proteins detected) (Homo sapiens, UniProt Q9H0A8); conditions: protein COMMD4; U3A cells
# [23] = target: proteins of U3A human fibrosarcoma cells (4462 proteins detected) (Homo sapiens, UniProt Q9HB71); conditions: protein CACYBP; U3A cells
# [24] = target: proteins of U3A human fibrosarcoma cells (4462 proteins detected) (Homo sapiens, UniProt Q9HC36); conditions: protein RNMTL1; U3A cells
# [25] = target: proteins of U3A human fibrosarcoma cells (4462 proteins detected) (Homo sapiens, UniProt Q9NNW5); conditions: protein WDR6, U3A cells
# [26] = target: proteins of U3A human fibrosarcoma cells (4462 proteins detected) (Homo sapiens, UniProt Q9NTZ6); conditions: protein RBM12; soluble abundance after heat, U3A cells
# [27] = target: proteins of U3A human fibrosarcoma cells (4462 proteins detected) (Homo sapiens, UniProt Q9NVU7); conditions: protein SDAD1; soluble abundance after heat, U3A cells
# [28] = target: proteins of U3A human fibrosarcoma cells (4462 proteins detected) (Homo sapiens, UniProt Q9UNX4); conditions: protein WDR3; U3A cells
# [29] = target: proteins of U3A human fibrosarcoma cells (4462 proteins detected) (Homo sapiens, UniProt Q9Y3A4); conditions: protein RRP7A; U3A cells
# [30] = target: proteins of U3A human fibrosarcoma cells (4462 proteins detected) (Homo sapiens, UniProt Q9Y4X5); conditions: protein ARIH1; U3A cells
# Sequence of proteins of U3A human fibrosarcoma cells (4462 proteins detected) (Homo sapiens, UniProt Q92888) (Q92888 whole entry): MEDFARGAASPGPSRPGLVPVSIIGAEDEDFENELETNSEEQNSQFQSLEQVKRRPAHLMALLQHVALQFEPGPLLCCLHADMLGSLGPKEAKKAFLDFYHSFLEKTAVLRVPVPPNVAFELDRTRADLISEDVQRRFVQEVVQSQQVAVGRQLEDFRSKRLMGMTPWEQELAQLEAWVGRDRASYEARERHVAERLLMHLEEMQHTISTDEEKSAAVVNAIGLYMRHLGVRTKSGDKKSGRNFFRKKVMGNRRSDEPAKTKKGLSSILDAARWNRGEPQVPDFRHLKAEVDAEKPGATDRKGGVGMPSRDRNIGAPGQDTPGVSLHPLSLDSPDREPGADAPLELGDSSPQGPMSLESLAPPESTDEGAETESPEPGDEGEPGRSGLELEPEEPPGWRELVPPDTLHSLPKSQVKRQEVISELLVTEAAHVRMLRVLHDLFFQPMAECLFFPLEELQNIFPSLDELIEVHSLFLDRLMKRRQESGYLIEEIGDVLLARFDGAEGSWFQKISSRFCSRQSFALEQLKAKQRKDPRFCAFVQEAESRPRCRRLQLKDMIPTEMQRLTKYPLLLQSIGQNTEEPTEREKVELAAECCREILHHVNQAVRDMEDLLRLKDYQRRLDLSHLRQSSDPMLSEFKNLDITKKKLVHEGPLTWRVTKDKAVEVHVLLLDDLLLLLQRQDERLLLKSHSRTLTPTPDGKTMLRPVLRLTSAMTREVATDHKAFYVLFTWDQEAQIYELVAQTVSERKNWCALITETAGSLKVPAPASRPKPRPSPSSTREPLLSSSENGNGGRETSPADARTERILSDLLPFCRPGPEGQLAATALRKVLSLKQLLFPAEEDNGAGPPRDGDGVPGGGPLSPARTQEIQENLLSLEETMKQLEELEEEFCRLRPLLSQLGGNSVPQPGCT
# Sequence of proteins of U3A human fibrosarcoma cells (4462 proteins detected) (Homo sapiens, UniProt Q13131) (Q13131 whole entry): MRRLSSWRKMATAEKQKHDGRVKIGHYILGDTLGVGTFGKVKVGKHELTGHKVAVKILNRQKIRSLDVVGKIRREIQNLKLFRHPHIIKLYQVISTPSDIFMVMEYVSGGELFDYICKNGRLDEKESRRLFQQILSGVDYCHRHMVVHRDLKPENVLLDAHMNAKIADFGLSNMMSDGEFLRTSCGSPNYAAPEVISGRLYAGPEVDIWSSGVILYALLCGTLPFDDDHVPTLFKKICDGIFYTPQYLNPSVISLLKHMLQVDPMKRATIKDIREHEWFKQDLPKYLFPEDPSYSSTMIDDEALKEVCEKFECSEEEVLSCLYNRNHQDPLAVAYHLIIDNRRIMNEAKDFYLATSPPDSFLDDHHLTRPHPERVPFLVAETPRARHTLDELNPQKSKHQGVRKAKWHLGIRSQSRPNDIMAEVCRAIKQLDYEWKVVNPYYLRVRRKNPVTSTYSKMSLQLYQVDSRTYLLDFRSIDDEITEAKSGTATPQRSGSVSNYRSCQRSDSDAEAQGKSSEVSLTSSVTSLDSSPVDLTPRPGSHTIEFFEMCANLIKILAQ
# Sequence of proteins of U3A human fibrosarcoma cells (4462 proteins detected) (Homo sapiens, UniProt Q7Z3E5) (Q7Z3E5 whole entry): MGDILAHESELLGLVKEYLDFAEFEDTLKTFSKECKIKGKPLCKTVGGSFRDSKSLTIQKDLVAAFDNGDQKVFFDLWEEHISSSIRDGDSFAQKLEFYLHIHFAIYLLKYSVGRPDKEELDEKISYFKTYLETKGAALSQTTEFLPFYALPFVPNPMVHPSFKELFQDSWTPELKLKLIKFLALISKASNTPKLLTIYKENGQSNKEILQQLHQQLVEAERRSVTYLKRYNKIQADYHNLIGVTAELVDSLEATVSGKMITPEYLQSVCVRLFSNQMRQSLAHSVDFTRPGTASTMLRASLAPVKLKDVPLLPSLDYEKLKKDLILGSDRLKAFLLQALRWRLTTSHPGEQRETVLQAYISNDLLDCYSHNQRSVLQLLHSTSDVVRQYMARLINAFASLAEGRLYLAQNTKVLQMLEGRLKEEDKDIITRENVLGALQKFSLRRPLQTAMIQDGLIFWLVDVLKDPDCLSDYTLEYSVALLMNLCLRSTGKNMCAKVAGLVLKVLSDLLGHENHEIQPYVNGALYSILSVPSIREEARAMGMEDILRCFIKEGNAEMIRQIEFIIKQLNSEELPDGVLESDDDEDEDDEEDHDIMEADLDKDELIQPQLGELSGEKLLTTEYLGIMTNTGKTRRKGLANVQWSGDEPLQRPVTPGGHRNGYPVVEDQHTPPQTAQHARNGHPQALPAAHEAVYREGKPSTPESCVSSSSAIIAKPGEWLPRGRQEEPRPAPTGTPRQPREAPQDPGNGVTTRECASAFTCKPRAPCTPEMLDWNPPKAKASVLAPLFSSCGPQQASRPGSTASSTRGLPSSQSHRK
# Sequence of proteins of U3A human fibrosarcoma cells (4462 proteins detected) (Homo sapiens, UniProt P14866) (P14866 whole entry): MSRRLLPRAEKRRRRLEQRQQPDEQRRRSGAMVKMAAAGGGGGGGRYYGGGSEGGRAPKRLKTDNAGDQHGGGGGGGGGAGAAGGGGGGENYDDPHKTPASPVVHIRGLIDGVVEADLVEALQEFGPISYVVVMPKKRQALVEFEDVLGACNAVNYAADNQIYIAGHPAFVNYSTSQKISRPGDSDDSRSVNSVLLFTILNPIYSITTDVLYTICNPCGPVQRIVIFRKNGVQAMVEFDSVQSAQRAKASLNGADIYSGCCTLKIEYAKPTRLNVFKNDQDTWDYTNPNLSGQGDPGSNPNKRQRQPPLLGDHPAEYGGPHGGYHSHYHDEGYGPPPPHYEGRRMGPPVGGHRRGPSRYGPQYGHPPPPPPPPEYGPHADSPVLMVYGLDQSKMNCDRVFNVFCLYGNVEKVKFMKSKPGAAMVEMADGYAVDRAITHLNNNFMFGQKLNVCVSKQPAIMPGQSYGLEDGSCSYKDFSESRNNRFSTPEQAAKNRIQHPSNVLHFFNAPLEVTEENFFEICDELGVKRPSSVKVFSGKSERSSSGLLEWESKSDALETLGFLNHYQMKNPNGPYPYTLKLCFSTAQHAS
# Sequence of proteins of U3A human fibrosarcoma cells (4462 proteins detected) (Homo sapiens, UniProt Q16626) (Q16626 whole entry): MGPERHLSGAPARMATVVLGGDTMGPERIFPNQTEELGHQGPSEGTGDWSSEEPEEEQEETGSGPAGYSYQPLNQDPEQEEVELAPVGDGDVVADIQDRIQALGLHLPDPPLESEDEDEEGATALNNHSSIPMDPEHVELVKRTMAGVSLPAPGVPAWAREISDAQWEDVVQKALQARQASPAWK
# Sequence of proteins of U3A human fibrosarcoma cells (4462 proteins detected) (Homo sapiens, UniProt Q9UNX4) (Q9UNX4 whole entry): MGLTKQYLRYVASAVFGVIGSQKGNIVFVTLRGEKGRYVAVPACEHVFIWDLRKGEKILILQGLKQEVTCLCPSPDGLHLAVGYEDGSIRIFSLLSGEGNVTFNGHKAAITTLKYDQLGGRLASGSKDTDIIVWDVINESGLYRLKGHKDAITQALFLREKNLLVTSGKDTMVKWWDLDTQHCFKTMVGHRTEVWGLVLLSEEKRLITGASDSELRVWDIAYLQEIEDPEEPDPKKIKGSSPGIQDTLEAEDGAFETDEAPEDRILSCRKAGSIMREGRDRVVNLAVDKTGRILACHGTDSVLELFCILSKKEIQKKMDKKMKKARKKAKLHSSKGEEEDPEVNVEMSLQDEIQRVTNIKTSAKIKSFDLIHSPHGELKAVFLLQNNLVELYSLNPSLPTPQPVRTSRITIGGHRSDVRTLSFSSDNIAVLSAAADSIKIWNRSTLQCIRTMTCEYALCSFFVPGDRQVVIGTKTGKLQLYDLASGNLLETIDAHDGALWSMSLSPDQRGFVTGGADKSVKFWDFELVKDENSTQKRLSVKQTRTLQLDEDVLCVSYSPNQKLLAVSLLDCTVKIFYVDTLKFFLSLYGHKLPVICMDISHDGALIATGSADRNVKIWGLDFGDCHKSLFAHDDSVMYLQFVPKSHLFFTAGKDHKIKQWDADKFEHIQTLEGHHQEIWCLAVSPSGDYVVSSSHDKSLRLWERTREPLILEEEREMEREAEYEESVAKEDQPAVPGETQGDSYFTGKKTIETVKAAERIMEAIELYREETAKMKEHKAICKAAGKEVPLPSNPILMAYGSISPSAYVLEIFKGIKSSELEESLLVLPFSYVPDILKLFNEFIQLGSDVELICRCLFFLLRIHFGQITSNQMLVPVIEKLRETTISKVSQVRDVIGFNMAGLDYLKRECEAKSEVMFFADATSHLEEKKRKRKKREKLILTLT
# Sequence of proteins of U3A human fibrosarcoma cells (4462 proteins detected) (Homo sapiens, UniProt O75459) (O75459 whole entry): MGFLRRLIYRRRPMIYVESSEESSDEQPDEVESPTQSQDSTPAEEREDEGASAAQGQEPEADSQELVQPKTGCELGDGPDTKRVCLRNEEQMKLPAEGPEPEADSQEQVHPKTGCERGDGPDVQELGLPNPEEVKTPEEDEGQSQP
# Sequence of proteins of U3A human fibrosarcoma cells (4462 proteins detected) (Homo sapiens, UniProt P51648) (P51648 whole entry): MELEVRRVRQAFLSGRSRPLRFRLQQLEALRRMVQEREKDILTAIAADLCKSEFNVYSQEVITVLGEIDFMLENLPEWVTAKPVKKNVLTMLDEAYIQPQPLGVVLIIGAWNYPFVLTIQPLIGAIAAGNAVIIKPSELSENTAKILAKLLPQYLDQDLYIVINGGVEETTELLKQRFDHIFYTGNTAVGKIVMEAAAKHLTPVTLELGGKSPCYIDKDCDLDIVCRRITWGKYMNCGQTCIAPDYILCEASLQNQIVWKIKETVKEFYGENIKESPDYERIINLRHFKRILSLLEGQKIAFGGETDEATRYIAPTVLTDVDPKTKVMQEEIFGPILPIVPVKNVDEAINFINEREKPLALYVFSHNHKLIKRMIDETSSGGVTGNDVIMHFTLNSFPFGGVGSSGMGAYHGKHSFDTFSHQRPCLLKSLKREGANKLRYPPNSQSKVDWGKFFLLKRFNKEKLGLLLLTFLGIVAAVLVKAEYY
# Sequence of proteins of U3A human fibrosarcoma cells (4462 proteins detected) (Homo sapiens, UniProt Q8TDP1) (Q8TDP1 whole entry): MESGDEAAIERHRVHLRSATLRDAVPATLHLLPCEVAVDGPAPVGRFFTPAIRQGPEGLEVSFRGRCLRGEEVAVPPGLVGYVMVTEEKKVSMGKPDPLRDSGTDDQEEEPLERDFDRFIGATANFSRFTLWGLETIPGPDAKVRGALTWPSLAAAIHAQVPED
# Sequence of proteins of U3A human fibrosarcoma cells (4462 proteins detected) (Homo sapiens, UniProt Q9H0A8) (Q9H0A8 whole entry): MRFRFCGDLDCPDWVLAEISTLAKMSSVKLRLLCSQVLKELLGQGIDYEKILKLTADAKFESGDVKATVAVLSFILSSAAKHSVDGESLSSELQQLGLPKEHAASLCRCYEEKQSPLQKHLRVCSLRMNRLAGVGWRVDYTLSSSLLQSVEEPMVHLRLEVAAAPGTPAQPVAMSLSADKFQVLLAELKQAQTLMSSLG
compound,measurement,setting,value
CCc1nc(N)nc(N)c1-c1ccc(Cl)cc1 [pyrimethamine],"Log2 (PYR/DMSO), DSCR3",[1],-0.16
same,Log2 (PYR/DMSO),[2],0.14
same,Log2 (PYR/DMSO),[3],-0.04
same,Log2 (PYR/DMSO),[4],0.16
same,"Log2 (PYR/DMSO), ENO1",[5],-0.17
same,Log2 (PYR/DMSO),[6],0.19
same,Log2 (PYR/DMSO),[7],0.15
same,Log2 (PYR/DMSO),[8],0.17
same,Log2 (PYR/DMSO),[9],0.16
same,Log2 (PYR/DMSO),[10],0.19
same,Log2 (PYR/DMSO),[11],-0.04
same,Log2 (PYR/DMSO),[12],-0.04
same,Log2 (PYR/DMSO),[13],0.18
same,Log2 (PYR/DMSO),[14],0.20
same,Log2 (PYR/DMSO),[15],-0.04
same,Log2 (PYR/DMSO),[16],0.19
same,"Log2 (PYR/DMSO), ARMC9",[17],-0.15
same,"Log2 (PYR/DMSO), DDX54",[18],0.25
same,Log2 (PYR/DMSO),[19],-0.03
same,Log2 (PYR/DMSO),[20],0.18
same,Log2 (PYR/DMSO),[21],-0.04
same,Log2 (PYR/DMSO),[22],0.21
same,Log2 (PYR/DMSO),[23],0.19
same,Log2 (PYR/DMSO),[24],0.21
same,Log2 (PYR/DMSO),[25],-0.04
same,Log2 (PYR/DMSO),[26],0.15
same,Log2 (PYR/DMSO),[27],0.15
same,Log2 (PYR/DMSO),[28],0.17
same,Log2 (PYR/DMSO),[29],0.19
same,Log2 (PYR/DMSO),[30],0.16
